Source: ChEMBL document CHEMBL6153110, “Peptide Double-Stapling and Arginine N-Glycosylation Triggered the Development of Therapeutic Antimicrobial Peptides Capable of Killing Drug-Resistant Bacteria in Mice” (J Med Chem, 2025)
Converted amounts (≈) assume the structure as drawn. Positions of bridges follow the written chain, without caps; N, C: chain ends. Non-standard residues stand in square brackets, D forms with d. Residues, ends and D or L forms follow the SMILES beside them. R8 = C=CCCCCCC[C@@](C)(N)C(=O)O; S5 = C=CCCC[C@](C)(N)C(=O)O; Abu = CC[C@H](N)C(=O)O

Tests used:
Type in all cases: functional
Streptococcus pneumoniae = assay: Antimicrobial activity against Streptococcus pneumoniae ATCC 49619 assessed as growth inhibition measured after 8 hrs incubation by standard broth dilution assay
Pseudomonas aeruginosa = assay: Antimicrobial activity against Pseudomonas aeruginosa ATCC 27853 assessed as growth inhibition measured after 8 hrs incubation by standard broth dilution assay
Klebsiella pneumoniae = assay: Antimicrobial activity against Klebsiella pneumoniae ATCC 13883 assessed as growth inhibition measured after 8 hrs incubation by standard broth dilution assay
Staphylococcus aureus = assay: Antimicrobial activity against methicillin-resistant Staphylococcus aureus ATCC 43300 assessed as growth inhibition measured after 8 hrs incubation by standard broth dilution assay

Structure (SMILES) | MIC (Streptococcus pneumoniae) [µg/mL] | MIC (Pseudomonas aeruginosa) [µg/mL] | MIC (Klebsiella pneumoniae) [µg/mL] | MIC (Staphylococcus aureus) [µg/mL]
CC(=O)N[C@@H](CC(C)C)C(=O)N[C@@H](CCCCN)C(=O)N[C@@H](CCCNC(=N)N)C(=O)N[C@H](C(=O)N[C@@H](Cc1c[nH]c2ccccc12)C(=O)N[C@@H](CCCCN)C(=O)N[C@@H](CCCNC(=N)N)C(=O)N[C@H](C(=O)N[C@@H](Cc1ccccc1)C(=O)N[C@@H](CCCCN)C(=O)N[C@@H](CC(C)C)C(=O)N[C@@]1(C)CCC/C=C\CCC[C@@](C)(C(=O)N[C@@H](CCCNC(=N)N)C(=O)N[C@@H](CCC(N)=O)C(=O)N[C@@H](CC(C)C)C(=O)N[C@@H](CCCCN)C(=O)N[C@@H](CCCCN)C(=O)N2CCC[C@H]2C(=O)N[C@H](C(=O)N[C@@H](CCCNC(=N)N)C(N)=O)C(C)C)NC(=O)[C@H](Cc2ccc(O)cc2)NC(=O)[C@H](CCCNC(=N)N)NC(=O)[C@H](CCCCN)NC1=O)C(C)C)C(C)C (Ac-LKRVWKRVFKL[S5]KRY[S5]RQLKKPVR-NH2; staple (Z) 12-16) | 4.7 (≈ 1.46 µM) | 5 (≈ 1.55 µM) | 38 (≈ 11.8 µM) | 9.7 (≈ 3.01 µM)
CC(=O)N[C@@H](CC(C)C)C(=O)N[C@@H](CCCCN)C(=O)N[C@@H](CCCNC(=N)N)C(=O)N[C@H](C(=O)N[C@@H](Cc1c[nH]c2ccccc12)C(=O)N[C@@H](CCCCN)C(=O)N[C@@H](CCCNC(=N)N)C(=O)N[C@H](C(=O)N[C@@H](Cc1ccccc1)C(=O)N[C@@H](CCCCN)C(=O)N[C@]1(C)CCCCCC/C=C\CCC[C@@](C)(C(=O)N[C@@H](CC(C)C)C(=O)N[C@@H](CCCCN)C(=O)N[C@@H](CCCCN)C(=O)N2CCC[C@H]2C(=O)N[C@H](C(=O)N[C@@H](CCCNC(=N)N)C(N)=O)C(C)C)NC(=O)[C@H](CCCNC(=N)N)NC(=O)[C@H](Cc2c[nH]c3ccccc23)NC(=O)[C@H](Cc2ccc(O)cc2)NC(=O)[C@H](CCCNC(=N)N)NC(=O)[C@H](CCCCN)NC(=O)[C@H](CC(C)C)NC1=O)C(C)C)C(C)C (Ac-LKRVWKRVFK[R8]LKRYWR[S5]LKKPVR-NH2; staple (Z) 11-18) | 37.7 (≈ 11.4 µM) | 5 (≈ 1.51 µM) | 4.9 (≈ 1.48 µM) | 9.7 (≈ 2.92 µM)
CC(=O)N[C@@H](CC(C)C)C(=O)N[C@@H](CCCCN)C(=O)N[C@@H](CCCNC(=N)N)C(=O)N[C@H](C(=O)N[C@@H](Cc1c[nH]c2ccccc12)C(=O)N[C@@H](CCCCN)C(=O)N[C@@H](CCCNC(=N)N)C(=O)N[C@H](C(=O)N[C@@H](Cc1ccccc1)C(=O)N[C@@H](CCCCN)C(=O)N[C@@]1(C)CCC/C=C\CCC[C@@](C)(C(=O)N[C@@H](Cc2c[nH]c3ccccc23)C(=O)N[C@@H](CCCNC(=N)N)C(=O)N[C@@H](CCC(N)=O)C(=O)N[C@@H](CC(C)C)C(=O)N[C@@H](CCCCN)C(=O)N[C@@H](CCCCN)C(=O)N2CCC[C@H]2C(=O)N[C@H](C(=O)N[C@@H](CCCNC(=N)N)C(N)=O)C(C)C)NC(=O)[C@H](CCCNC(=N)N)NC(=O)[C@H](CCCCN)NC(=O)[C@H](CC(C)C)NC1=O)C(C)C)C(C)C (Ac-LKRVWKRVFK[S5]LKR[S5]WRQLKKPVR-NH2; staple (Z) 11-15) | 37.7 (≈ 11.6 µM) | 38.1 (≈ 11.8 µM) | 38 (≈ 11.7 µM) | 2.5 (≈ 0.771 µM)
CC(=O)N[C@@H](CC(C)C)C(=O)N[C@@H](CCCCN)C(=O)N[C@@H](CCCNC(=N)N)C(=O)N[C@H](C(=O)N[C@@H](Cc1c[nH]c2ccccc12)C(=O)N[C@@H](CCCCN)C(=O)N[C@@H](CCCNC(=N)N)C(=O)N[C@H](C(=O)N[C@]1(C)CCCCCC/C=C\CCC[C@@](C)(C(=O)N[C@@H](CCCNC(=N)N)C(=O)N[C@@H](CCC(N)=O)C(=O)N[C@@H](CC(C)C)C(=O)N[C@@H](CCCCN)C(=O)N[C@@H](CCCCN)C(=O)N2CCC[C@H]2C(=O)N[C@H](C(=O)N[C@@H](CCCNC(=N)N)C(N)=O)C(C)C)NC(=O)[C@H](Cc2ccc(O)cc2)NC(=O)[C@H](CCCNC(=N)N)NC(=O)[C@H](CCCCN)NC(=O)[C@H](CC(C)C)NC(=O)[C@H](CC(C)C)NC(=O)[C@H](CCCCN)NC1=O)C(C)C)C(C)C (Ac-LKRVWKRV[R8]KLLKRY[S5]RQLKKPVR-NH2; staple (Z) 9-16) | 9.6 (≈ 2.98 µM) | 38 (≈ 11.8 µM) | 38 (≈ 11.8 µM) | 9.7 (≈ 3.01 µM)
CC(=O)N[C@@H](CC(C)C)C(=O)N[C@@H](CCCCN)C(=O)N[C@@H](CCCNC(=N)N)C(=O)N[C@H](C(=O)N[C@@H](Cc1c[nH]c2ccccc12)C(=O)N[C@@H](CCCCN)C(=O)N[C@@H](CCCNC(=N)N)C(=O)N[C@H](C(=O)N[C@@]1(C)CCC/C=C\CCC[C@@](C)(C(=O)N[C@@H](CCCNC(=N)N)C(=O)N[C@@H](Cc2ccc(O)cc2)C(=O)N[C@@H](Cc2c[nH]c3ccccc23)C(=O)N[C@@H](CCCNC(=N)N)C(=O)N[C@@H](CCC(N)=O)C(=O)N[C@@H](CC(C)C)C(=O)N[C@@H](CCCCN)C(=O)N[C@@H](CCCCN)C(=O)N2CCC[C@H]2C(=O)N[C@H](C(=O)N[C@@H](CCCNC(=N)N)C(N)=O)C(C)C)NC(=O)[C@H](CC(C)C)NC(=O)[C@H](CC(C)C)NC(=O)[C@H](CCCCN)NC1=O)C(C)C)C(C)C (Ac-LKRVWKRV[S5]KLL[S5]RYWRQLKKPVR-NH2; staple (Z) 9-13) | 9.6 (≈ 2.96 µM) | 5 (≈ 1.54 µM) | 38 (≈ 11.7 µM) | 2.5 (≈ 0.771 µM)
CC(=O)N[C@@H](CC(C)C)C(=O)N[C@@H](CCCCN)C(=O)N[C@@H](CCCNC(=N)N)C(=O)N[C@H](C(=O)N[C@@H](Cc1c[nH]c2ccccc12)C(=O)N[C@@H](CCCCN)C(=O)N[C@@H](CCCNC(=N)N)C(=O)N[C@]1(C)CCCCCC/C=C\CCC[C@@](C)(C(=O)N[C@@H](Cc2c[nH]c3ccccc23)C(=O)N[C@@H](CCCNC(=N)N)C(=O)N[C@@H](CCC(N)=O)C(=O)N[C@@H](CC(C)C)C(=O)N[C@@H](CCCCN)C(=O)N[C@@H](CCCCN)C(=O)N2CCC[C@H]2C(=O)N[C@H](C(=O)N[C@@H](CCCNC(=N)N)C(N)=O)C(C)C)NC(=O)[C@H](CCCNC(=N)N)NC(=O)[C@H](CCCCN)NC(=O)[C@H](CC(C)C)NC(=O)[C@H](CC(C)C)NC(=O)[C@H](CCCCN)NC(=O)[C@H](Cc2ccccc2)NC1=O)C(C)C (Ac-LKRVWKR[R8]FKLLKR[S5]WRQLKKPVR-NH2; staple (Z) 8-15) | 19 (≈ 5.76 µM) | 5 (≈ 1.52 µM) | 38 (≈ 11.5 µM) | 9.7 (≈ 2.94 µM)
CC(=O)N[C@@H](CC(C)C)C(=O)N[C@@H](CCCCN)C(=O)N[C@@H](CCCNC(=N)N)C(=O)N[C@H](C(=O)N[C@@H](Cc1c[nH]c2ccccc12)C(=O)N[C@@H](CCCCN)C(=O)N[C@@H](CCCNC(=N)N)C(=O)N[C@@]1(C)CCC/C=C\CCC[C@@](C)(C(=O)N[C@@H](CCCCN)C(=O)N[C@@H](CCCNC(=N)N)C(=O)N[C@@H](Cc2ccc(O)cc2)C(=O)N[C@@H](Cc2c[nH]c3ccccc23)C(=O)N[C@@H](CCCNC(=N)N)C(=O)N[C@@H](CCC(N)=O)C(=O)N[C@@H](CC(C)C)C(=O)N[C@@H](CCCCN)C(=O)N[C@@H](CCCCN)C(=O)N2CCC[C@H]2C(=O)N[C@H](C(=O)N[C@@H](CCCNC(=N)N)C(N)=O)C(C)C)NC(=O)[C@H](CC(C)C)NC(=O)[C@H](CCCCN)NC(=O)[C@H](Cc2ccccc2)NC1=O)C(C)C (Ac-LKRVWKR[S5]FKL[S5]KRYWRQLKKPVR-NH2; staple (Z) 8-12) | 37.7 (≈ 11.4 µM) | 5 (≈ 1.51 µM) | 38 (≈ 11.5 µM) | 2.5 (≈ 0.756 µM)
CC[C@@H]1NC(=O)[C@H](Cc2ccccc2)NC(=O)[C@H](C(C)C)NC(=O)[C@@](C)(NC(=O)[C@H](CCCCN)NC(=O)[C@H](Cc2c[nH]c3ccccc23)NC(=O)[C@@H](NC(=O)[C@H](CCCNC(=N)N)NC(=O)[C@H](CCCCN)NC(=O)[C@H](CC(C)C)NC(C)=O)C(C)C)CCC/C=C\CCC[C@@](C)(C(=O)N[C@@H](CC(C)C)C(=O)N[C@@H](CCCCN)C(=O)N[C@@H](CCCNC(=N)N)C(=O)N[C@@H](Cc2ccc(O)cc2)C(=O)N[C@@H](Cc2c[nH]c3ccccc23)C(=O)N[C@@H](CCCNC(=N)N)C(=O)N[C@@H](CCC(N)=O)C(=O)N[C@@H](CC(C)C)C(=O)N[C@@H](CCCCN)C(=O)N[C@@H](CCCCN)C(=O)N2CCC[C@H]2C(=O)N[C@H](C(=O)N[C@@H](CCCNC(=N)N)C(N)=O)C(C)C)NC1=O (Ac-LKRVWK[S5]VF[Abu][S5]LKRYWRQLKKPVR-NH2; staple (Z) 7-11) | 19 (≈ 5.93 µM) | 5 (≈ 1.56 µM) | 4.9 (≈ 1.53 µM) | 2.5 (≈ 0.78 µM)
CC(=O)N[C@@H](CC(C)C)C(=O)N[C@@H](CCCCN)C(=O)N[C@@H](CCCNC(=N)N)C(=O)N[C@H](C(=O)N[C@]1(C)CCCCCC/C=C\CCC[C@@](C)(C(=O)N[C@@H](CCCCN)C(=O)N[C@@H](CCCNC(=N)N)C(=O)N[C@@H](Cc2ccc(O)cc2)C(=O)N[C@@H](Cc2c[nH]c3ccccc23)C(=O)N[C@@H](CCCNC(=N)N)C(=O)N[C@@H](CCC(N)=O)C(=O)N[C@@H](CC(C)C)C(=O)N[C@@H](CCCCN)C(=O)N[C@@H](CCCCN)C(=O)N2CCC[C@H]2C(=O)N[C@H](C(=O)N[C@@H](CCCNC(=N)N)C(N)=O)C(C)C)NC(=O)[C@H](CC(C)C)NC(=O)[C@H](CCCCN)NC(=O)[C@H](Cc2ccccc2)NC(=O)[C@H](C(C)C)NC(=O)[C@H](CCCNC(=N)N)NC(=O)[C@H](CCCCN)NC1=O)C(C)C (Ac-LKRV[R8]KRVFKL[S5]KRYWRQLKKPVR-NH2; staple (Z) 5-12) | 9.6 (≈ 2.94 µM) | 19.3 (≈ 5.92 µM) | 38 (≈ 11.7 µM) | 9.7 (≈ 2.98 µM)
CC(=O)N[C@@H](CC(C)C)C(=O)N[C@@H](CCCCN)C(=O)N[C@@H](CCCNC(=N)N)C(=O)N[C@H](C(=O)N[C@@]1(C)CCC/C=C\CCC[C@@](C)(C(=O)N[C@@H](CCCCN)C(=O)N[C@@H](CC(C)C)C(=O)N[C@@H](CC(C)C)C(=O)N[C@@H](CCCCN)C(=O)N[C@@H](CCCNC(=N)N)C(=O)N[C@@H](Cc2ccc(O)cc2)C(=O)N[C@@H](Cc2c[nH]c3ccccc23)C(=O)N[C@@H](CCCNC(=N)N)C(=O)N[C@@H](CCC(N)=O)C(=O)N[C@@H](CC(C)C)C(=O)N[C@@H](CCCCN)C(=O)N[C@@H](CCCCN)C(=O)N2CCC[C@H]2C(=O)N[C@H](C(=O)N[C@@H](CCCNC(=N)N)C(N)=O)C(C)C)NC(=O)[C@H](C(C)C)NC(=O)[C@H](CCCNC(=N)N)NC(=O)[C@H](CCCCN)NC1=O)C(C)C (Ac-LKRV[S5]KRV[S5]KLLKRYWRQLKKPVR-NH2; staple (Z) 5-9) | 37.7 (≈ 11.8 µM) | 2.6 (≈ 0.817 µM) | 38 (≈ 11.9 µM) | 2.5 (≈ 0.785 µM)
